Measurements taken from patent publication US9615581B2, “Stable needle-shaped crystals of natamycin” (DSM IP ASSETS B.V., priority 2004, dated 2017).

Tests used:
Type in all cases: physicochemical
[1] = Dissolution of natamycin in water as a function of pH
Procedure: According to another aspect of the present invention, there is provided a process to produce the needle-shaped crystals of the invention. In the first step of this process, natamycin is dissolved in an aqueous solution. The solution comprises at least 80 wt %, preferably at least 90 wt % more preferably at least 95 wt % and still more preferably at least 98 wt % and preferably at least 99 wt % water as solvent. […] Preferably, natamycin is dissolved at a pH ranged between 10 and 14, more preferably at a pH ranged between 11 and 13. In general, natamycin of a purity of more than 90 wt % (including hydrate) preferably of a purity of 95% is used.

[2] = Sedimentation (demixing) of natamycin dispersions in tapwater in glass tubes; conditions: 1.5 g Delvocid equivalent in 1000 g tapwater, glass tube
Procedure: This example describes the test performed to analyze the sedimentation differences. 1.5 g Delvocid® was added to 998.5 gram tapwater and dispersed well by an electric top stirrer, type RW 20 DZM, from Janke & Kunkel equipped with a rushton stirrer. 1.5 gram of Delvocid® made according to Example 1 was mixed with tapwater to a final weight of 1000 gram by an electric top stirrer, type RW 20 DZM, from Janke & Kunkel equipped with a rushton stirrer. Both homogeneous mixtures were poured in glass tubes and observed in time on demixing.

[3] = Resuspendability of settled natamycin in a low viscous dispersion; conditions: not touched for 26 days, glass tubes turned around once
Procedure: This example describes the test that was performed to analyze the resuspendability of settled natamycin in a low viscous dispersion. 1.5 gram Delvocid® was added to 998.5 gram tapwater and dispersed well by an electric top stirrer, type RW 20 DZM, from Janke & Kunkel equipped with a rushton stirrer. An amount equal to 1.5 gram Delvocid® made according to Example 1 was mixed with tapwater to a final weight of 1000 gram by an electric top stirrer, type RW 20 DZM, from Janke & Kunkel equipped with a rushton stirrer. Both homogeneous mixtures were poured in glass tubes and not touched for 26 days.

[4] = Stability of recrystallized natamycin dispersion (rest activity by HPLC); conditions: for Found natamycin activity (%): dispersion made according to Example 1
Procedure: This example describes the method that was used to analyze the amount of active natamycin in a water-based mixture of several components.
The method used was a HPLC analysis based on the International Dairy Federation (Provisional IDF Standard 140, 1992) with a Lichrosorb RP 8 column.
Detection was at 303 nm UV with a range of 0.1-4 mg/L with an injection volume of 20 μl. Sample preparation was carried out by weighing 2 g of prepared formulation with an accuracy of 1 mg in a measuring flask. 4 ml demineralized water (demiwater) was added and the mixture was stirred for 15 minutes to get a homogeneous suspension.
Subsequently, 80 ml ethanol was added and the mixture was stirred for 10 minutes.
After ultrasonic treatment, the solution was filled up to 100 ml with demiwater and then diluted and/or filtered (0.2 μm) before injecting. The amount of active natamycin was calculated as ppm against a series of standards.
This example describes the stability of recrystallized natamycin, a natamycin dispersion is made according to Example 1 and followed in time on stability.

[5] = Crystal form stability of needle-shaped crystal suspension on storage; conditions: 6 months of storage of suspension at 10° C.
Source text: As discussed above a sediment of the needle-shaped crystals of the present invention can be easily brought back in the suspended state without exclusive stirring or shaking. Another advantage of the needle-shaped crystals is that this crystal form is stable.

| dissolution in water ([1]; low pH (lower than 4.0) or high pH (above 10.0)) | dissolution in water ([1]; neutral pH) | demixing observed ([2]; time 0 minutes) | demixing observed ([2]; time 40 minutes) | demixing observed ([2]; time 60 minutes) | demixing observed ([2]; time 110 minutes) | demixing observed ([2]; time 180 minutes) | demixing observed ([2]; time 4320 minutes) | resuspendability of pellet [3] | stability ([4]; for at least six months) | Found natamycin activity (%) ([4]; incubation time 0 months) | Found natamycin activity (%) ([4]; incubation time 1 month) | Found natamycin activity (%) ([4]; incubation time 2 months) | Found natamycin activity (%) ([4]; incubation time 4 months) | Found natamycin activity (%) ([4]; incubation time 6 months) | SMILES | crystal form and mean length after storage [5] |
| --- | --- | --- | --- | --- | --- | --- | --- | --- | --- | --- | --- | --- | --- | --- | --- | --- |
| easily dissolve | hardly dissolve | – | – | – | – | – | – | – | – | – | – | – | – | – | C[C@@H]1C/C=C/C=C/C=C/C=C/[C@H](O[C@@H]2O[C@H](C)[C@@H](O)[C@H](N)[C@@H]2O)C[C@@H]2O[C@](O)(C[C@@H](O)C[C@H]3O[C@@H]3/C=C/C(=O)O1)C[C@H](O)[C@H]2C(=O)O [natamycin] | – |
| – | – | Homogeneous | Start demixing observed | Two layers observed | Pellet formation | Pellet formation | Pellet and clear top layer | remained a solid pellet | – | – | – | – | – | – | C[C@@H]1C/C=C/C=C/C=C/C=C/[C@H](O[C@@H]2O[C@H](C)[C@@H](O)[C@H](N)[C@@H]2O)C[C@@H]2O[C@](O)(C[C@@H](O)C[C@H]3O[C@@H]3/C=C/C(=O)O1)C[C@H](O)[C@H]2C(=O)O [Standard natamycin, natamycin] | – |
| – | – | Homogeneous | Homogeneous | Homogeneous | Homogeneous | Homogeneous | Start demixing observed | almost completely resuspended | very high | 100% | 100% | 99% | 100% | 98% | C[C@@H]1C/C=C/C=C/C=C/C=C/[C@H](O[C@@H]2O[C@H](C)[C@@H](O)[C@H](N)[C@@H]2O)C[C@@H]2O[C@](O)(C[C@@H](O)C[C@H]3O[C@@H]3/C=C/C(=O)O1)C[C@H](O)[C@H]2C(=O)O [Recrystallized natamycin, natamycin] | still contained needle-shaped crystals having the same mean length |
